# Measurements taken from patent publication EP4763845A1, “CYANO AROMATIC RING DERIVATIVE AND PHARMACEUTICAL USE THEREOF” (Haisco Pharmaceutical Group Co., Ltd., priority 2023, dated 2025).
# Target: T1, AR protein (Homo sapiens, UniProt P10275)
# T1 construct: VCap is a human prostate cancer cell line purchased from ATCC; host or cells: VCaP human prostate cancer cells
# T1 sequence (P10275 1-920): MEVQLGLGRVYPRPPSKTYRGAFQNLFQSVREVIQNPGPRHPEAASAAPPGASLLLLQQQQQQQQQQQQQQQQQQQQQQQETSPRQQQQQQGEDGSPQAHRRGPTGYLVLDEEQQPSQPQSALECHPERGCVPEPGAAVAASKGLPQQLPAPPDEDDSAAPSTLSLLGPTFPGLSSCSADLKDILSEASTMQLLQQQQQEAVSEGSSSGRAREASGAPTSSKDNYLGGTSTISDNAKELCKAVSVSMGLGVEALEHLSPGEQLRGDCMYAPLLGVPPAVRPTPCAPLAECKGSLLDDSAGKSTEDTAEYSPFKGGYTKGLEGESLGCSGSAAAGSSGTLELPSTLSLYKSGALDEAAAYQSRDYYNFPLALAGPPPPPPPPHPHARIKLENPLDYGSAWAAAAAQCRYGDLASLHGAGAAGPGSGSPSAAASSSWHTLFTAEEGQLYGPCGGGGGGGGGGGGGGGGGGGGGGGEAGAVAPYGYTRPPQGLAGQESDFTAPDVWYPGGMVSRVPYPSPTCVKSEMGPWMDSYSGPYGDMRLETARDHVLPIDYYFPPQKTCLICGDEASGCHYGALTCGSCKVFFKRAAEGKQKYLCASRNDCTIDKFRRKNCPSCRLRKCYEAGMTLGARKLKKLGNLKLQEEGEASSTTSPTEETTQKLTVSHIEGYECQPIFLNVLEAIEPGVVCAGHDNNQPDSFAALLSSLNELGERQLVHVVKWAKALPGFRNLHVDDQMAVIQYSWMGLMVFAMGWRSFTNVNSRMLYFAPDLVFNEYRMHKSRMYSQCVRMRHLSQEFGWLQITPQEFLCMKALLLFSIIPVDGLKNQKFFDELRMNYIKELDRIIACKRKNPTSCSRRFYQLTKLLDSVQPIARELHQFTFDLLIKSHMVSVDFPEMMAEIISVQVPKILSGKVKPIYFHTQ
# Test: Detection of AR degradation in VCaP cells (automated western blot)
# Assay type: cell-based
# Details: degradation of AR protein in VCaP cells, 24 hours incubation; read-out: DC50
# Summary of the method: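 VCaP cells (5 × 10^5/well) were treated with compounds at various concentrations for 24 h at 37°C. Lysate AR level was quantified by automated capillary western blot, normalised to β-actin and expressed relative to solvent control. DC50 came from four-parameter nonlinear regression; degradation rate = 100 − AR%.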
smiles,measurement,value
CC1(C)[C@H](NC(=O)c2ccc(N3CCC(CN4CCN5c6cc(F)c(C7CCC(=O)NC7=O)cc6CC[C@H]5C4)CC3)cc2)C(C)(C)[C@H]1Oc1ccc(C#N)c2ncccc12 (stereo partly shown) [Compound 31],DC50,< 100 nM
